Activity calls are given as the source filed them.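 The calls were made as follows: active = lipid-stain IC50 at or below a set limit, with nuclear-stain toxicity IC50 at least five times higher; inactive = the rest.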
Legend:
DAPI = assay: triacylglycerol accumulation inhibitor potency, dose response, cell-based, panel, Nile Red and DAPI fluorescence, H9c2 (AID 651630); conditions: H9c2 cells, DAPI nuclear fluorescence (cytotoxicity counter-readout), oleic acid;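 also: cells exposed to compound overnight before fixation and staining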
TAG = assay: as above; conditions: H9c2 cells, Nile Red TAG fluorescence, oleic acid

SMILES | IC50 (TAG; mean of runs) | IC50 (TAG; run 1) [µM] | IC50 (TAG; run 2) [µM] | IC50 cytotoxicity (DAPI nuclear signal decrease) (DAPI; mean of runs) | IC50 cytotoxicity (DAPI nuclear signal decrease) (DAPI; run 1) [µM] | IC50 cytotoxicity (DAPI nuclear signal decrease) (DAPI; run 2) [µM]
CCOc1ccccc1NC(=O)CCC(=O)Nc1ccccc1OCC | > 25 µM (inactive) | > 25 | > 25 | > 25 µM (inactive) | > 25 | > 25
CC1(C)Cc2nc3sc4c(SCC(=O)NCc5ccco5)ncnc4c3cc2CO1 | > 25 µM (inactive) | > 25 | > 25 | > 25 µM (inactive) | > 25 | > 25
COc1cccc(Nc2nnc(SCc3cc([N+](=O)[O-])cc4c3OCOC4)s2)c1 | > 25 µM (inactive) | > 25 | > 25 | > 25 µM (inactive) | > 25 | > 25
Cc1c(C(=O)OCC(C)C)[nH]c2c1C(=O)CC(c1cccs1)C2 (stereo not drawn) | > 25 µM (inactive) | > 25 | > 25 | > 25 µM (inactive) | > 25 | > 25
CCCc1cc(C(=O)N/N=C/c2ccc(CC)s2)c2ccccc2n1 | > 25 µM (inactive) | > 25 | > 25 | > 25 µM (inactive) | > 25 | > 25
CCC(=NCCc1c(C)[nH]c2ccc(OC(F)(F)F)cc12)C1=C(O)CC(c2ccccc2)CC1=O (stereo not drawn) | > 25 µM (inactive) | > 25 | > 25 | > 25 µM (inactive) | > 25 | > 25
COc1ccc(CC(=O)Nc2ccc(-c3nnc(-c4ccc(C)cc4)o3)cc2)cc1 | > 25 µM (inactive) | > 25 | > 25 | > 25 µM (inactive) | > 25 | > 25
O=C(Nc1ccccc1)c1ccc(NCC2CCCO2)c(S(=O)(=O)N2CCOCC2)c1 (stereo not drawn) | > 25 µM (inactive) | > 25 | > 25 | > 25 µM (inactive) | > 25 | > 25
CCN1CCN(c2ncc3c(n2)CC(c2cc(OC)c(OC)c(OC)c2)CC3=O)CC1 (stereo not drawn) | > 25 µM (inactive) | > 25 | > 25 | > 25 µM (inactive) | > 25 | > 25
Cc1cccc(Oc2nc(-c3ccccn3)nc3ccccc23)c1 | > 25 µM (inactive) | > 25 | > 25 | > 25 µM (inactive) | > 25 | > 25
COc1ccc(OC)c(NS(=O)(=O)c2ccc(N3CCCC3=O)cc2)c1 | > 25 µM (inactive) | > 25 | > 25 | > 25 µM (inactive) | > 25 | > 25
CCCN(CCC)CCNC(=O)c1cc2c(=O)n(CC)c3ccccc3c2s1 | > 25 µM (inactive) | > 25 | > 25 | > 25 µM (inactive) | > 25 | > 25
Cc1cccc2cc(C#N)c(SCC(=O)NNC(=O)Cc3ccccc3)nc12 | > 25 µM (inactive) | > 25 | > 25 | > 25 µM (inactive) | > 25 | > 25
CC1CCN(c2cc(N3CCC(C)CC3)c([N+](=O)[O-])cc2/C=C(\C#N)c2nn(-c3ccccc3)c(N)c2C#N)CC1 | > 25 µM (inactive) | > 25 | > 25 | > 25 µM (inactive) | > 25 | > 25
CCOc1ccccc1NC(=O)c1cccc(NC(=O)c2ccco2)c1 |  | > 25 | 9.58 | > 25 µM (inactive) | > 25 | > 25
COc1cc2nc(NCCCN3CCN(C)CC3)n3nc(-c4ccccc4)nc3c2cc1OC | > 25 µM (inactive) | > 25 | > 25 | > 25 µM (inactive) | > 25 | > 25

The next lines start with results.

IC50 (TAG; mean of runs) | IC50 (TAG; run 1) [µM] | IC50 (TAG; run 2) [µM] | SMILES | IC50 cytotoxicity (DAPI nuclear signal decrease) (DAPI; mean of runs) | IC50 cytotoxicity (DAPI nuclear signal decrease) (DAPI; run 1) [µM] | IC50 cytotoxicity (DAPI nuclear signal decrease) (DAPI; run 2) [µM]
> 25 µM (inactive) | > 25 | > 25 | CCOC(=O)[C@H]1[C@H]2COc3ccc(Br)cc3[C@@H]2N2C(=O)c3cc(Br)ccc3NC(=O)[C@@]12C | > 25 µM (inactive) | > 25 | > 25
> 25 µM (inactive) | > 25 | > 25 | CN1CCN(c2ccc([N+](=O)[O-])cc2C(=O)c2ccc(Cl)cc2)CC1 | > 25 µM (inactive) | > 25 | > 25
13.3 µM | 11.5 | 15.1 | Cc1nc2c(ccc3nc(NC(=O)Cc4cccc5ccccc45)sc32)s1 | > 25 µM (inactive) | > 25 | > 25
12.2 µM | 11.8 | 12.6 | Cc1c(C(=O)N2CC3(CC(c4cccc(NC(=O)CC(c5ccccc5)c5ccccc5)c4)=NO3)C[C@@H]2C(N)=O)cc([N+](=O)[O-])cc1[N+](=O)[O-] (stereo partly drawn) | > 25 µM (inactive) | > 25 | > 25
9.34 µM | 8.74 | 9.95 | Oc1ccc(C[C@H]2CNC(=S)N2CC2CCCN2C[C@H](Cc2ccc(O)cc2)N2C[C@H](Cc3ccc(O)cc3)N(CC3CCCCC3)C2=S)cc1 (stereo partly drawn) | > 25 µM (inactive) | > 25 | > 25
6.82 µM | 4.82 | 8.81 | CCC(C)(C)NC(=O)C(c1ccc(C)cc1)N(Cc1ccco1)C(=O)CCC(=O)Nc1nccs1 (stereo not drawn) | > 25 µM (inactive) | > 25 | > 25
11.2 µM | 11.5 | 11 | CC(C)(C)NCCC(O)c1cc(C(F)(F)F)nc2c(C(F)(F)F)cccc12 (stereo not drawn) | > 25 µM (inactive) | > 25 | > 25
 | 24.9 | > 25 | Cc1ccc2nc3n(c(=O)c2c1)-c1cc2ccccc2cc1C(=O)NC3Cc1ccc(O)cc1 (stereo not drawn) | > 25 µM (inactive) | > 25 | > 25
14.1 µM | 12.9 | 15.3 | COc1ccc(OC)c(Nc2nc(-c3sc(NC(=O)CC(C)C)nc3C)cs2)c1 | > 25 µM (inactive) | > 25 | > 25
3.9 µM | 4.38 | 3.41 | CC(C)c1ccc(Nc2nc(N3CCOCC3)nc(N3CCOCC3)n2)cc1 |  | > 25 | > 25
5.44 µM | 4.6 | 6.28 | COc1cc(-c2cnc3c(NC=O)cc(-c4cccc(NC(C)=O)c4)cn23)cc(OC)c1OC | > 25 µM (inactive) | > 25 | > 25
10.6 µM | 9.86 | 11.4 | CC(C)N(C(=O)[C@H]1C[C@H](CC(=O)NCc2cccc(C(F)(F)F)c2)C(=O)N2CCc3c([nH]c4ccc(Cl)cc34)[C@]12C)C(C)C | > 25 µM (inactive) | > 25 | > 25
17.9 µM (inactive) | 20.2 | 15.5 | COc1ccc(CC(N)c2csc(NC(=O)NCc3ccccc3)n2)cc1 (stereo not drawn) | > 25 µM (inactive) | > 25 | > 25
7.04 µM | 7.46 | 6.62 | Cc1ccc(-c2csc(NC(=O)CSc3nc4ccccc4c(=O)n3CCCN(C)C)n2)cc1 | > 25 µM (inactive) | > 25 | > 25
16.6 µM (inactive) | 16.8 | 16.5 | COc1ccc(Nc2nc3cc(-c4sccc4C)sc3c(=O)n2C)cc1OC | > 25 µM (inactive) | > 25 | > 25
3.8 µM | 4.85 | 2.76 | Cc1ccc(NC(=O)CSc2nc3ccc(Nc4nc(N5CCOCC5)nc(N5CCOCC5)n4)cc3s2)cc1 |  | > 25 | > 25

From PubChem BioAssay AID651630 (Sanford-Burnham Center for Chemical Genomics, 2012)
